Experimental findings from patent US12630529B2, “GCN2 modulator compounds” (ALESTA THERAPEUTICS BV, priority 2020, dated 2026) are described below.

In general, IC50 refers to the concentration at which inhibition is half-maximal.

T1 sequence (Q9QZ05 whole entry): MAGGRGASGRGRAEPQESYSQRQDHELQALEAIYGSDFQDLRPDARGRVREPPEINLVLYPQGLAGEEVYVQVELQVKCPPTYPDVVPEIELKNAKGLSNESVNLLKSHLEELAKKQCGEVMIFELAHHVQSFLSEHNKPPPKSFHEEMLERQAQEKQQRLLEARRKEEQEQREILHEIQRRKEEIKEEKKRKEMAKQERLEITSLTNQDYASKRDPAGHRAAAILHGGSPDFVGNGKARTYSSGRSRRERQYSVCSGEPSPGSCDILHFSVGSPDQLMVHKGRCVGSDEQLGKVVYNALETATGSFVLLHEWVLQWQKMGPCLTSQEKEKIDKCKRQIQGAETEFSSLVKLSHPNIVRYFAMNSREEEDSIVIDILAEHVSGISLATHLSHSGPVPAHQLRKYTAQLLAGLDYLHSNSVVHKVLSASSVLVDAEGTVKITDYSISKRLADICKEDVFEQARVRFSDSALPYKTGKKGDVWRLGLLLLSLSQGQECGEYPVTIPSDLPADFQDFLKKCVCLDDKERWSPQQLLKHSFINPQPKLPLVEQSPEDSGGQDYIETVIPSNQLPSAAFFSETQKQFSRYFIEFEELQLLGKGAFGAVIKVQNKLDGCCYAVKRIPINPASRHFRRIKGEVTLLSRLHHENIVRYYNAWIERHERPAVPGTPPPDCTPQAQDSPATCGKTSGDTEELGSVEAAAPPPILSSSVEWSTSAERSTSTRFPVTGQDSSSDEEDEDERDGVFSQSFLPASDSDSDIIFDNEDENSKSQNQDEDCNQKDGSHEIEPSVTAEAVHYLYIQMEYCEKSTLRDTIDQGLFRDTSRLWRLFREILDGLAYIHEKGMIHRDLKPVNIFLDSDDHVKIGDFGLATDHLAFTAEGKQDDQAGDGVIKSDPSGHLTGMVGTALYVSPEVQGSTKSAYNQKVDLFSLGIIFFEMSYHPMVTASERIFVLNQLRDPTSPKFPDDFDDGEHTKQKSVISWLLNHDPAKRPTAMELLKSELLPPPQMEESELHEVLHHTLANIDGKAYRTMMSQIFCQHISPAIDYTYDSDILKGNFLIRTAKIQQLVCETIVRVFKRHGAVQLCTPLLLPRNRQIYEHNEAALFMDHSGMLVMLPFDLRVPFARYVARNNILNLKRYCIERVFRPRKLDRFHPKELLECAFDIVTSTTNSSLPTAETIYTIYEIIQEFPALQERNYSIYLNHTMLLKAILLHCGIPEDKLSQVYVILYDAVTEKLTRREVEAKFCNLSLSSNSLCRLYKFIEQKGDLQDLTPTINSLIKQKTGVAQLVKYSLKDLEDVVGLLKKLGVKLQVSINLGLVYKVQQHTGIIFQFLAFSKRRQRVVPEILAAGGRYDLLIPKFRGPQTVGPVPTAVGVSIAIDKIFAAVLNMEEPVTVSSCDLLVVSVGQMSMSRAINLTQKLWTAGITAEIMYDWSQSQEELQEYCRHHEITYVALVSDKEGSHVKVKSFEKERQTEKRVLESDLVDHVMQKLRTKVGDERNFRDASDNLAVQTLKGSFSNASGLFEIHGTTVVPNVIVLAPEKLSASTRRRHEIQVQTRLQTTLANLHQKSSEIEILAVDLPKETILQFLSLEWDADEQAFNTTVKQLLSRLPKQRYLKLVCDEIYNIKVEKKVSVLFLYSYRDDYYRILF
Sequence of GCN2 (Homo sapiens, UniProt Q9P2K8) (Q9P2K8 whole entry): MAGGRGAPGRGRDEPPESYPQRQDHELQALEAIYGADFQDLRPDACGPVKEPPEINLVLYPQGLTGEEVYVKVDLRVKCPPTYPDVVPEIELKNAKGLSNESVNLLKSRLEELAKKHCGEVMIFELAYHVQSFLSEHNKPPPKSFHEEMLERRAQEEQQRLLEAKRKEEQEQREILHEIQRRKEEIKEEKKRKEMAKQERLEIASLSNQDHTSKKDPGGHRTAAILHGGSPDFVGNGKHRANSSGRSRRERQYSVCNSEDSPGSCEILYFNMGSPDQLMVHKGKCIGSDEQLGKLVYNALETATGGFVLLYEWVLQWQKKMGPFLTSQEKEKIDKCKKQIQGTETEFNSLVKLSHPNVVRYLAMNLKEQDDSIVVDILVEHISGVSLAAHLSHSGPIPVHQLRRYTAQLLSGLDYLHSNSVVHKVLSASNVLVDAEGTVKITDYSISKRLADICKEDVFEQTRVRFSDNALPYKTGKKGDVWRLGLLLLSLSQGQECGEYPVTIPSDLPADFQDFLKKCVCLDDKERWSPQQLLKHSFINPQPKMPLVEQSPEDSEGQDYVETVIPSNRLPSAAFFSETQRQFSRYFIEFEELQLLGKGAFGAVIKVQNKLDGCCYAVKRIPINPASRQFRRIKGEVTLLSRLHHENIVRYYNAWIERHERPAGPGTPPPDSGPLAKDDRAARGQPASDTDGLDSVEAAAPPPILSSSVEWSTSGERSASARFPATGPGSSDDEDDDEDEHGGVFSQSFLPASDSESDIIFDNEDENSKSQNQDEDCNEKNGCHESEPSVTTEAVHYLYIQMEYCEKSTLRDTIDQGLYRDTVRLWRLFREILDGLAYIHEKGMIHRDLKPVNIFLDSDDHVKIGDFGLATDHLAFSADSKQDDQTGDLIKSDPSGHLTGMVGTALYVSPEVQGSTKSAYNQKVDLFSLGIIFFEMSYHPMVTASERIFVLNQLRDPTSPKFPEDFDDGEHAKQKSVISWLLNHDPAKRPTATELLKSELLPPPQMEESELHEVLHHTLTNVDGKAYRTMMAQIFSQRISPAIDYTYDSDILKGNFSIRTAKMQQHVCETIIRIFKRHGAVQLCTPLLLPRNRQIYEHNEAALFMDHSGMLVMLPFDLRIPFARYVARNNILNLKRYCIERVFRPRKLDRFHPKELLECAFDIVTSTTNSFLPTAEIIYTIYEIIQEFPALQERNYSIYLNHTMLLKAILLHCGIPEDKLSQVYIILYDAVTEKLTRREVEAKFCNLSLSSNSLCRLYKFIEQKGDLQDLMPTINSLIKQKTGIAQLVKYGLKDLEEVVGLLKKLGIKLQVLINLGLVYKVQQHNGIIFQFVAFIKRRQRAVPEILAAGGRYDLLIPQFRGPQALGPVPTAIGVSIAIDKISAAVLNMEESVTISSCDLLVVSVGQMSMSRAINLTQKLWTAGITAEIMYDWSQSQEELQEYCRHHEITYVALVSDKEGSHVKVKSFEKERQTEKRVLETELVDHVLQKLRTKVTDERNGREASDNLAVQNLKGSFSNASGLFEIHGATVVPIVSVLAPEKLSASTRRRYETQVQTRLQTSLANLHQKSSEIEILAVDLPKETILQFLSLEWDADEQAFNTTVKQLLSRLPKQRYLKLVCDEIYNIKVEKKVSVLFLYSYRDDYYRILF

The first assay addresses T1, GCN2 (Mus musculus, UniProt Q9QZ05).
T1 construct: endogenous in cells; host or cells: Neuro 2a (N2a)
Briefly: GCN2 inhibition cell-based assay (P-GCN2 Western blot in Neuro 2a cells). The note with it: amino acid deprived media (DMEM lacking L-cysteine and methionine), 3 hours. On the procedure:
Neuro 2a cells (N2a) were maintained at 37° C. and 5% CO2 in DMEM/F12 medium (Fisher Scientific) supplemented with 10% fetal bovine serum and 1% penicillin-streptomycin (complete medium). 300,000 cells/well were seeded in flat bottom 6 well plates 48 hours before treatment with the compounds.
Testing compounds were prepared at different concentrations ranging from 10 μM to 0.1 nM on DMEM medium lacking L-cysteine and methionine (DMEM-CM) (Gibco) and supplemented with 1% penicillin-streptomycin. Complete medium was used as control of non-stressed condition. After 48 hours, the medium was removed from each well and 2 mL per well of each treatment was added. Cells were treated for 3 hours at 37° C. and 5% CO2.
After the incubation time, each well was washed with sterile 1×PBS and then 100 μL of ice-cold lysis buffer supplemented with phosphatase and protease inhibitors was added. Lysates were transferred to 1.5 mL tubes and sonicated for 3 min, and total protein amounts were quantified using BCA assay (e.g., BCA Protein Assay Kit; Pierce) according to manufacturer instructions. Equal amount of proteins was loaded on SDS-PAGE gels for electrophoresis and then transferred onto 0.2 µm filter pore PVDF membranes.
Membranes were then blocked in blocking buffer containing 3% BSA/0.1% Tween/1×Tris-buffered saline (TBS) for 1 hour and then incubated overnight at 4° C. with agitation with anti-pGCN2 primary antibody (Abcam ab-75836), diluted 1:1,000 in blocking buffer. […] (Sigma Aldrich) was used as a loading control.
Membranes were then incubated with the corresponding secondary antibody to detect immune-reactive bands using enhanced chemiluminescence (e.g., ECL Western Blotting Substrate Pierce).
Images were acquired (e.g., using Chemidoc™ equipment) and quantitated by densitometry using ImageJ software. IC50 values were determined from a concentration-response curve using GraphPad prism software.
IC50 values from P-GCN2 inhibition assay after induction with amino acid deprived media in the presence of different concentrations of test compounds are shown in Table 2. For IC50 values: +++ refers to <10 nM of test compound; ++ refers to 10 nM to 100 nM of test compound; + refers to 100 nM to 1,000 nM of test compound and − refers to >1,000 nM of test compound.
Under GCN2-mediated stress conditions, resulting from an amino acid deprived medium, GCN2 is generally phosphorylated. Accordingly, inhibition of GCN2 phosphorylation as a result of the test compound indicates inhibition of the GCN2 pathway.
Background: A western blot detects proteins with antibodies after separation by electrophoresis.
The molecule `COc1ncc(Cl)cc1C(=O)Nc1ccc(F)c(C#Cc2cnc(N)nc2)c1F` [Compound 3] had an IC50 above 1000 nM.

Consider `COc1ncc(Cl)cc1S(=O)(=O)Nc1ccc(F)c(-c2ccc(-c3cnc(N)nc3)nc2)c1F` [Compound 4], for which the concentration for half-maximal inhibition (IC50) was above 1000 nM.

In turn, `Nc1ncc2ccc(-c3c(F)ccc(NS(=O)(=O)c4cc(Cl)ccc4Cl)c3F)cc2n1` [Compound 5] yielded an IC50 above 1000 nM.

`COc1ncc(Cl)cc1S(=O)(=O)Nc1ccc(F)c(-c2ccc3cnc(N)nc3c2)c1F` [Compound 6] showed an IC50 above 1000 nM.

Molecule `COc1ncc(Cl)cc1-c1nnc(-c2ccc(F)c(C#Cc3cnc(N)nc3)c2F)o1` [Compound 7] returned an IC50 above 1000 nM.

Take `Nc1ncc2cc(-c3c(F)ccc(NS(=O)(=O)c4cccc(OC(F)(F)F)c4)c3F)ccc2n1` [Compound 139]: the half-maximal inhibitory concentration (IC50) fell in the range of 100 to 1000 nM.

In the case of `Nc1ncc2cc(-c3c(F)ccc(NS(=O)(=O)c4ccsc4)c3F)ccc2n1` [Compound 140], the concentration for half-maximal inhibition (IC50) is above 1000 nM.

As for `CC(C)c1cccc(S(=O)(=O)Nc2ccc(F)c(-c3ccc4nc(N)ncc4c3)c2F)c1` [Compound 141], the half-maximal inhibitory concentration (IC50) is above 1000 nM.

For the molecule `Nc1ncc2cc(-c3c(F)ccc(NS(=O)(=O)c4cccs4)c3F)ccc2n1` [Compound 142], the IC50 is above 1000 nM.

The molecule `COc1cc(S(=O)(=O)Nc2ccc(F)c(-c3ccc4nc(N)ncc4c3)c2F)ccc1F` [Compound 143] gave a half-maximal inhibitory concentration (IC50) of 100 to 1000 nM.

The molecule `Nc1ncc2cc(-c3c(F)ccc(NS(=O)(=O)c4cc(C(F)(F)F)cc(C(F)(F)F)c4)c3F)ccc2n1` [Compound 144] registered an IC50 of 10 to 100 nM.

`Nc1ncc2cc(-c3c(F)ccc(NS(=O)(=O)c4cccc(C(F)(F)F)c4)c3F)ccc2n1` [Compound 145]: the IC50 was above 1000 nM.

`Nc1ncc2cc(-c3c(F)ccc(NS(=O)(=O)c4ccc(Cl)c(F)c4)c3F)ccc2n1` [Compound 146] yielded an IC50 of 100 to 1000 nM.

In turn, `Cc1ccc(S(=O)(=O)Nc2ccc(F)c(-c3ccc4nc(N)ncc4c3)c2F)cc1Cl` [Compound 147] returned an IC50 of 100 to 1000 nM.

Molecule `COc1ccc(S(=O)(=O)Nc2ccc(F)c(-c3ccc4nc(N)ncc4c3)c2F)cc1Cl` [Compound 148] had a 50% inhibitory concentration (IC50) of 100 to 1000 nM.

Molecule `Nc1ncc2cc(-c3c(F)ccc(NS(=O)(=O)c4ccc(Cl)c(C(F)(F)F)c4)c3F)ccc2n1` [Compound 149] returned a half-inhibitory concentration (IC50) of 100 to 1000 nM.

In the case of `Nc1ncc2cc(-c3c(F)ccc(NS(=O)(=O)c4cc(Cl)c(Cl)cc4Cl)c3F)ccc2n1` [Compound 150], the IC50 lay in the range of 10 to 100 nM.

Turning to `COc1ncc(Cl)cc1S(=O)(=O)Nc1ccc(F)c(-c2ccc3nc(NC(CO)CO)ncc3c2)c1F` [Compound 153], the IC50 lay within 10 to 100 nM.

Consider `COc1ncc(Cl)cc1S(=O)(=O)Nc1ccc(F)c(-c2ccc3nc(N[C@@H](CO)c4ccccc4)ncc3c2)c1F` [Compound 154], for which the IC50 was 100 to 1000 nM.

`COc1ncc(Cl)cc1S(=O)(=O)Nc1ccc(F)c(-c2ccc3nc(N(C)C)ncc3c2)c1F` [Compound 155] had an IC50 of 100 to 1000 nM.

As for `COc1ncc(Cl)cc1S(=O)(=O)Nc1ccc(F)c(-c2ccc3nc(N4CCCCC4)ncc3c2)c1F` [Compound 156], the half-inhibitory concentration (IC50) lay in the range of 10 to 100 nM.

For the molecule `COc1ncc(Cl)cc1S(=O)(=O)Nc1ccc(F)c(-c2ccc3nc(N[C@@H](C)CO)ncc3c2)c1F` [Compound 157], the IC50 was below 10 nM.

`Nc1ncc2cc(-c3c(F)ccc(NS(=O)(=O)c4ccc(F)c(Cl)c4)c3F)ccc2n1` [Compound 158] returned an IC50 of 100 to 1000 nM.

Regarding `Cc1ccc(S(=O)(=O)Nc2ccc(F)c(-c3ccc4nc(N)ncc4c3)c2F)cc1F` [Compound 159], the IC50 lay within 10 to 100 nM.

Molecule `Cc1cc(S(=O)(=O)Nc2ccc(F)c(-c3ccc4nc(N)ncc4c3)c2F)ccc1F` [Compound 160] displayed an IC50 above 1000 nM.

As for `Nc1ncc2cc(-c3c(F)ccc(NS(=O)(=O)c4ccc5c(c4)CCC5)c3F)ccc2n1` [Compound 161], the IC50 was above 1000 nM.

With `CNc1ncc2cc(-c3c(F)ccc(NS(=O)(=O)c4cc(Cl)cc(CO)c4Cl)c3F)ccc2n1` [Compound 162], the 50% inhibitory concentration (IC50) fell in the range of 10 to 100 nM.

`COc1ncc(Cl)cc1S(=O)(=O)Nc1ccc(F)c(-c2ccc3nc(N[C@H](CO)c4ccccc4)ncc3c2)c1F` [Compound 163] came in with an IC50 of 100 to 1000 nM.

In turn, `O=S(=O)(Nc1ccc(F)c(-c2ccc3nc(N[C@H]4CC[C@H](O)CC4)ncc3c2)c1F)c1cc(Cl)ccc1C(F)(F)F` [Compound 164] displayed an IC50 below 10 nM.

`O=S(=O)(Nc1ccc(F)c(-c2ccc3nc(N[C@H]4CC[C@@H](O)CC4)ncc3c2)c1F)c1cc(Cl)ccc1C(F)(F)F` [Compound 165]: the 50% inhibitory concentration (IC50) was in the range of 10 to 100 nM.

The molecule `O=S(=O)(Nc1ccc(F)c(-c2ccc3nc(N[C@H](CO)c4ccccc4)ncc3c2)c1F)c1cc(Cl)ccc1C(F)(F)F` [Compound 166] gave a concentration for half-maximal inhibition (IC50) of 100 to 1000 nM.

Turning to `O=S(=O)(Nc1ccc(F)c(-c2ccc3nc(N[C@@H](CO)c4ccccc4)ncc3c2)c1F)c1cc(Cl)ccc1C(F)(F)F` [Compound 167], the IC50 lay within 100 to 1000 nM.

On to `O=S(=O)(Nc1ccc(F)c(-c2ccc3nc(NC4CCOC4)ncc3c2)c1F)c1cc(Cl)ccc1Cl` (centres unmarked) [Compound 168], for which the IC50 is below 10 nM.

In the next assay the test system is CHOP (DDIT3) reporter. Briefly: GCN2-induction of CHOP and apoptosis in 3T3 fibroblasts with CHOP (DDIT3) reporter construct. The note with it: murine 3T3 WT and GCN2 knockout CHOP reporter cells, stress inducer alone. The class given is cell-based, murine. As to the method: The CHOP construct comprised the […] (UTR) of mouse DDIT3 mRNA fused to a sequence encoding the fluorescent protein mCherry.
Cells were seeded at 5,000 cells per well in flat bottom 96-well plates in 100 μL DMEM low glucose media without phenol red, and supplemented with 10% FBS and 2 mM glutamine. After 24 hours, the exemplary compounds, and either tunicamycin, halofuginone, or histidinol, were added together with 100 nM of fluorescent apoptosis stain (YO-PRO™-1 Iodide; Thermo Fisher) to detect apoptotic cells. Cells were placed in a live-cell imaging and analysis platform (IncuCyte ZOOM®; Essenbio) set up in a humidified incubator at 37° C. and the plates were scanned every 4 hours for up 120 hours, at 10× magnification, to determine cell confluence and cell death. Experiments were performed in duplicate with 3 images collected per well, and analyzed using live-cell imaging and analysis software (IncuCyte ZOOM® 2018A software; Essenbio).
For `O=C(CC1NCCCC1O)Cn1cnc2cc(Br)c(Cl)cc2c1=O` (centres unmarked) [halofuginone, reference compound], the “induction of CHOP (mCherry)” value was “induction of CHOP (mCherry) could be observed in the WT cells, but not in the GCN2 knockout cells”.

As to `N[C@H](CO)Cc1c[nH]cn1` [histidinol, L-histidinol, reference compound], the “induction of CHOP (mCherry)” value is “induction of CHOP (mCherry) could be observed in the WT cells, but not in the GCN2 knockout cells”.

Regarding tunicamycin [reference compound], the “induction of CHOP (mCherry)” value was “significant induction of CHOP in both the WT and GCN2 knockout cell lines”.

A further assay has as its target GCN2 (Homo sapiens, UniProt Q9P2K8). Briefly: GCN2 enzyme inhibition assay (Reaction Biology EIF2AK4/GCN2 kinase assay). The class given is biochemical. Also on record: purchased Reaction Biology Corp. The following applies: human GCN2 enzyme activity, 10 μM ATP, 20 μM peptide substrate. As to the method:
In order to validate the above results, human GCN2 enzyme activity was measured in Reaction Biology Corp (EIF2AK4/GCN2 kinase assay). Compounds were tested in 5-dose IC50 mode for non-active compounds and 10-dose IC50 mode for active compounds with 3-fold serial dilution starting at 30 μM and 0.1 μM respectively. Control compound Staurosporine was tested in 10-dose IC50 mode with 4-fold serial dilution starting at 20 μM. Reactions were carried out at 10 μM ATP using 20 μM peptide substrate [GRSRSRSRSR]. For IC50 values: +++ refers to <10 nM of test compound; ++ refers to 10 nM to 100 nM of test compound; + refers to 100 nM to 1,000 nM of test compound and − refers to >1,000 nM of test compound.
For the molecule `COc1ncc(Cl)cc1C(=O)Nc1ccc(F)c(C#Cc2cnc(N)nc2)c1F` [Compound 3], the 50% inhibitory concentration (IC50) was above 1000 nM.

Molecule `COc1ncc(Cl)cc1S(=O)(=O)Nc1ccc(F)c(-c2ccc(-c3cnc(N)nc3)nc2)c1F` [Compound 4] came in with a 50% inhibitory concentration (IC50) of 100 to 1000 nM.

For the molecule `Nc1ncc2ccc(-c3c(F)ccc(NS(=O)(=O)c4cc(Cl)ccc4Cl)c3F)cc2n1` [Compound 5], the IC50 was above 1000 nM.

With `COc1ncc(Cl)cc1S(=O)(=O)Nc1ccc(F)c(-c2ccc3cnc(N)nc3c2)c1F` [Compound 6], the IC50 is above 1000 nM.

`COc1ncc(Cl)cc1-c1nnc(-c2ccc(F)c(C#Cc3cnc(N)nc3)c2F)o1` [Compound 7] came in with an IC50 above 1000 nM.
